Data set [1] in a line: Quantitative kinetic studies of Ni^2+ dependent peptide hydrolysis by HPLC. The format is physicochemical. To be noted: 1 mM peptide, 1 mM Ni^2+, 45° C., pH 8.2 (20 mM Tris). The protocol:
The title octapeptides were synthesised according to a typical Fmoc protocol (Fields, Meth. Enzymol. Vol. 289). The list of variable BXHZ sequences is given in Table 2, along with 1st order rate constants determined at 45° C., pH 8.2 (20 mM Tris buffer) for 1 mM peptide and Ni^2+ concentrations. […] The substrate and product peaks were identified by MALDI-TOF MS.

The nature of data set [2]: MALDI-TOF screening of Ni^2+ dependent hydrolysis in a combinatorial peptide library. It is filed as physicochemical. As to conditions: Ni^2+ 2 mM, pH 8.2, 10 mM Tris, score=24/tm. The method, boiled down: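 Sublibraries of Ac-Gly-Ala-Ser/Thr-X-His-Z-Lys-Phe-Leu-NH2, randomized at Z and fixed at X, were hydrolyzed at 1 mM total peptide with 2 mM Ni2+ in 10 mM Tris, pH 8.2, at 37 °C or 45 °C. Cleavage was scored visually in MALDI-TOF spectra at 2, 4, 6 and 8 h.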

Data set [3] can be described thus: Dependence of rate of hydrolysis of the Ala-Ser bond on buffer and Ni^2+ excess (HPLC). The format is physicochemical. As to conditions: pH 8.2, 1 mM peptide; for κ ± S.D., 1st order rate constant for the hydrolysis: 25° C., 1.2 mM Ni^2+. The method, then: The title peptide was synthesised according to a standard Fmoc protocol (Fields, Meth. Enzymol. Vol. 289). The pH dependence of the formation of the active complex of the title peptide, represented by the structure (III) in Scheme 2, was determined by potentiometry at 25° C., as described in Krezel et al., Chem. Res. Toxicol. 2003, 16, 855-864. The rate of peptide hydrolysis was studied by HPLC (as in Example 2) in a series of mixed phosphate/Tris/Borax buffers (40/20/20 mM) at 25° C. and pH between 6 and 12.5, with peptide and Ni^2+ concentrations equal to 1 mM. As presented in FIG. 1, the rate of hydrolysis matched the formation of the active complex quantitatively.
The dependence of the rate of hydrolysis on the buffer used was studied at 25° C. separately in 20 mM Tris, Hepes and sodium phosphate buffers, all at pH 8.2, for 1 mM peptide and 1.2 mM Ni^2+.
The dependence of the rate of hydrolysis of the title peptide on the molar ratio of Ni^2+ to peptide was studied at 25° C. and pH 8.2, for 1 mM peptide. The reaction rate constant k was 4.3±0.2 s^−1×10^−5 for the Ni^2+ to peptide molar ratio of 1.2 and 4.72±0.01 s^−1×10^−5 for the Ni^2+ to peptide molar ratio of 5.

The subject of data set [4] is proteinase. Briefly: Activity of SPI2 released from the recombinant polypeptide (Chavira et al.). It is filed as biochemical. As to conditions: after Ni^2+ cleavage on Ni-NTA-agarose, 100 mM Hepes pH 8.2, 50° C., 19 hours. The method, then:
The recombinant polypeptide from Example 4 (100 μl of a 140 μM solution) was loaded on 200 μl of Ni-NTA-agarose (Invitrogen), according to the manufacturer's instruction, and incubated in 100 mM Hepes buffer, pH 8.2 with 5 mM Ni^2+ at 50° C. without shaking. The incubation buffer (500 μl) was removed after 19 hours. Then the unreacted polypeptide and the cleaved off SRHW-AP-HHHHHH domain were washed from the column with two 400 μl portions of 200 mM imidazole, pH 7.4. The samples were analyzed by HPLC under conditions given in Example 4. FIG. 4 presented chromatograms of the control recombinant polypeptide, incubation buffer and both wash fractions. Masses of polypeptides were measured by ESI-MS. The yield of purified SPI2 was 88%. SPI2 obtained from this procedure was fully active, as determined according to […] et al., Anal. Biochem. 1984, 136, 446-450.

[5] abbreviates: CH3CO-Gly-Ala-Thr-X-His-Z-Lys-Phe-Leu-NH2 library, 37° C.
The mark [6] stands for this setting: CH3CO-Gly-Ala-Thr-X-His-Z-Lys-Phe-Leu-NH2 library, 45° C.

For the substance Ac-GASRHWKFL-NH2 [-SRHW-], in data set [1], the “k ± S.D., 1st order rate constant for the hydrolysis” value (shortened to “k ± S.D., 1st order rate constant”) was 28.8 ± 0.8 s^−1 · 10^−5.

As for “Ac-GASRHWKFL-NH2 [SRHW, CH3CO-Gly-Ala-Ser-Arg-His-Trp-Lys-Phe-Leu-NH2]”, the “hydrolysis score from MALDI-TOF screening” value (“hydrolysis score” for short) is given as 12 (a score of 12, if it was seen to be partially hydrolysed at 2 hours) in data set [2] (CH3CO-Gly-Ala-Ser-X-His-Z-Lys-Phe-Leu-NH2 library, 37° C.) and 12 (a score of 12, if it was seen to be partially hydrolysed at 2 hours) in data set [2] (CH3CO-Gly-Ala-Ser-X-His-Z-Lys-Phe-Leu-NH2 library, 45° C.). Further, the “κ ± S.D., 1st order rate constant for the hydrolysis” value in data set [3] (20 mM Hepes) is recorded as 5.9 ± 0.8 s^−1 × 10^−5; in data set [3] (20 mM Tris) it was 4.8 ± 0.5 s^−1 × 10^−5; in data set [3] (20 mM phosphate), 0.74 ± 0.09 s^−1 × 10^−5. In addition, the “reaction rate constant k” value is 4.3±0.2 s^−1×10^−5 in data set [3] (Ni^2+ to peptide molar ratio of 1.2, 25° C.) and 4.72±0.01 s^−1×10^−5 in data set [3] (Ni^2+ to peptide molar ratio of 5, 25° C.).

For the substance Ac-GASWHIKFL-NH2 [-SWHI-], in data set [1], the “k ± S.D., 1st order rate constant” value is recorded as 3 ± 1 s^−1 · 10^−5.

Ac-GATHHKKFL-NH2 [-THHK-]: in data set [1], the “k ± S.D., 1st order rate constant” value was 1.01 ± 0.09 s^−1 · 10^−5.

Ac-GATYHVKFL-NH2 [TYHV]: the “hydrolysis score” value in data set [2] (setting [5]) and in data set [2] (setting [6]) was 0 (a score of 0 if no trace of the product of hydrolysis was seen after 8 hours of incubation) throughout.

Turning to Ac-GATYHYKFL-NH2 [TYHY], the “hydrolysis score” value in data set [2] (setting [5]) and in data set [2] (setting [6]) was 0 (a score of 0 if no trace of the product of hydrolysis was seen after 8 hours of incubation) in each case.

“SPI2: single domain Kazal type proteinase inhibitor, released from (SPI2)-SRHW-AP-HHHHHH recombinant polypeptide”: in data set [4], the “activity of SPI2 obtained from cleavage on solid support” value is on record as “fully active”.

These data come from patent publication US8969516B2, “Method of hydrolysis of peptide bond” (priority 2006, dated 2015).
